Test results reported in ChEMBL document CHEMBL1137595, “Identification and optimisation of a series of substituted 5-(1H-pyrazol-3-yl)-thiophene-2-hydroxamic acids as potent histone deacetylase (HDAC) inhibitors” (Bioorg Med Chem Lett, 2007).

Test: Oral bioavailability after oral dosing at 5 mg kg-1
Format: ADME, organism-based
Details: mouse, in vivo

bioavailability: 10%
SMILES: O=C(NO)c1ccc(-c2ccn(CCNCc3ccc4c(c3)OCO4)n2)s1
